Common to all, as to design: species or system AML cell lines (8); Primary HTS, single concentration about 10 uM, Cell Titer Glo viability; log10 luminescence, per cent inhibition relative to cycloheximide control
Holding throughout (details): 72 h, relative to cycloheximide control, log10 luminescence, inhibitor
On the technique in general: In ATP-based viability assays light output follows the ATP content of the culture.

Assay [1] relates to M07e.
For assay [2], the system named is ML-2.
For assay [3], the system named is CHRF288-11.
The test system of assay [4] is MV4-11.
Assay [5] deals with CMK.
For assay [6], the system named is CMS.
In assay [7] the test system is MOLM-13.
For assay [8], the system named is U937.

Where two headings read alike, the source gives them in different places.

In the case of `c1ccc(COc2ccc(Nc3ncnc4ccc(-c5ccco5)cc34)cc2)cc1` [SJ000573171-1, C3157/71/1], the M07e %inh in assay [1] is recorded as -0.2498%. The ML-2 %inh in assay [2] is given as 3.492%. Further, the CHRF288-11 %inh in assay [3] is on record as -4.196%. For the same molecule, the MV4-11 %inh in assay [4] came out at 14.65%. For the same molecule, the CMK %inh in assay [5] came out at 6.655%. Further, the CMS %inh in assay [6] was 1.088%. For the same molecule, the MOLM-13 %inh in assay [7] came out at 27.04%. The U937 %inh in assay [8] worked out at 10.84%.

For the molecule `COc1ccc(Cl)cc1C(=O)NCCc1ccc(S(=O)(=O)NC(=O)NC2CCCCC2)cc1` [SJ000285391-7, GLYBURIDE | GLIBENCLAMIDE], in assay [1], the M07e %inh is on record as 3.672%. The ML-2 %inh in assay [2] was 1.589%. For the same molecule, in assay [3], the CHRF288-11 %inh is listed as 12.75%. In assay [4], the MV4-11 %inh amounted to 0.5716%. The CMK %inh in assay [5] is listed as -6.568%. Further, the CMS %inh in assay [6] is listed as -0.9752%. For the same molecule, in assay [7], the MOLM-13 %inh was determined as 3.373%. Also, in assay [8], the U937 %inh is recorded as 0.5073%.

In the case of `Oc1c(Cl)cc(Cl)c(Cl)c1Cc1c(O)c(Cl)cc(Cl)c1Cl` [SJ000285273-4, HEXACHLOROPHENE], the M07e %inh in assay [1] came to 10.84%. In assay [2], the ML-2 %inh was determined as 15.89%. In addition, the CHRF288-11 %inh in assay [3] was 23.59%. For the same molecule, the MV4-11 %inh in assay [4] was determined as 7.526%. The CMK %inh in assay [5] amounted to 117.7%. Moreover, the CMS %inh in assay [6] worked out at 32.47%. In assay [7], the MOLM-13 %inh stood at 75.15%. Further, the U937 %inh in assay [8] came to 24.03%.

Consider `Cn1c(-c2ccncc2)c(-c2ccc(F)cc2)c2ncccc21` [SJ000581117-1], for which the M07e %inh in assay [1] turned out to be 6.194%. In addition, the ML-2 %inh in assay [2] is given as -0.3566%. Besides, the CHRF288-11 %inh in assay [3] is reported as 26.1%. In addition, the MV4-11 %inh in assay [4] is 3.37%. The CMK %inh in assay [5] is given as 3.59%. Further, the CMS %inh in assay [6] came to 0.8281%. Further, in assay [7], the MOLM-13 %inh was found to be 0.427%. The U937 %inh in assay [8] came out at 0.6927%.

Regarding `CCn1c(-c2nonc2N)nc2c(C#CC(C)(C)O)nc(OCCNC)cc21` [SJ000573313-1, MS205583-134A1], the M07e %inh in assay [1] worked out at 22.08%. In addition, in assay [2], the ML-2 %inh is recorded as 3.569%. Further, the CHRF288-11 %inh in assay [3] amounted to 6.621%. Further, in assay [4], the MV4-11 %inh is reported as 55.12%. Besides, in assay [5], the CMK %inh was 13.56%. Moreover, the CMS %inh in assay [6] came to 10.14%. In addition, the MOLM-13 %inh in assay [7] was determined as 19.98%. Further, in assay [8], the U937 %inh is recorded as 64.14%.

`C[C@]12CC[C@@H]3c4ccc(O)cc4C[C@@H](CCCCCCCCC[S+]([O-])CCCC(F)(F)C(F)(F)F)[C@H]3[C@@H]1CC[C@@H]2O` (single isomer, unassigned) [SJ000288293-4, FULVESTRANT | FULVESTRANT| FASLODEX | FASLODEX (ICI 182,780)]: the M07e %inh in assay [1] (M07e %inh, 10 µM) is given as 2.696%. The ML-2 %inh in assay [2] (ML-2 %inh, 10 µM) was determined as 1.626%. For the same molecule, the CHRF288-11 %inh in assay [3] (CHRF288-11 %inh, 10 µM) is reported as -3.752%. The MV4-11 %inh in assay [4] (MV4-11 %inh, 10 µM) turned out to be 6.552%. Moreover, in assay [5] (CMK %inh, 10 µM), the CMK %inh is listed as -2.475%. The CMS %inh in assay [6] (CMS %inh, 10 µM) is 2.909%. Further, the MOLM-13 %inh in assay [7] (MOLM-13 %inh, 10 µM) is reported as -1.784%. For the same molecule, in assay [8] (U937 %inh, 10 µM), the U937 %inh is given as -1.083%.

`N#CCn1c(=O)c(Oc2ccc(F)cc2F)cc2cnc(NC3CCOCC3)nc21` [SJ000581089-1]: in assay [1], the M07e %inh is listed as 5.15%. Besides, the ML-2 %inh in assay [2] worked out at 0.2559%. Also, the CHRF288-11 %inh in assay [3] was 0.7869%. Besides, the MV4-11 %inh in assay [4] came out at 0.2945%. Further, the CMK %inh in assay [5] is recorded as 1.27%. The CMS %inh in assay [6] came to 1.167%. In addition, the MOLM-13 %inh in assay [7] is recorded as 79.15%. In assay [8], the U937 %inh came to 0.6532%.

In the case of `Cc1cccc(Nc2cc(Cl)nc(SCC(=O)O)n2)c1C` [SJ000546497-1, WY 14643 | WY-14643 | WY-14643 (PIRINIXIC ACID)], the M07e %inh in assay [1] is listed as 2.884%. The ML-2 %inh in assay [2] is recorded as 1.805%. In assay [3], the CHRF288-11 %inh is recorded as 0.5396%. Further, in assay [4], the MV4-11 %inh turned out to be 2.638%. The CMK %inh in assay [5] is -0.2043%. Moreover, the CMS %inh in assay [6] is -0.6556%. For the same molecule, the MOLM-13 %inh in assay [7] was 0.03488%. Besides, in assay [8], the U937 %inh was determined as 0.764%.

Regarding `COc1cc[nH]c1/C=C1\C(=O)Nc2ccc(F)c(I)c21` [SJ000581115-1], in assay [1], the M07e %inh stood at 4.603%. The ML-2 %inh in assay [2] was 0.5185%. In addition, the CHRF288-11 %inh in assay [3] is -1.945%. Moreover, the MV4-11 %inh in assay [4] turned out to be 2.865%. The CMK %inh in assay [5] was -0.2359%. In addition, the CMS %inh in assay [6] turned out to be 4.321%. In assay [7], the MOLM-13 %inh was found to be 8.55%. Also, in assay [8], the U937 %inh was 3.766%.

For the molecule `O=c1c(Oc2ccc(F)cc2F)cc2cnc(NC3CCOCC3)nc2n1C1CCS(=O)(=O)CC1` [SJ000580961-1], the M07e %inh in assay [1] is recorded as -1.798%. The ML-2 %inh in assay [2] worked out at 0.6064%. Further, the CHRF288-11 %inh in assay [3] is recorded as -4.195%. Also, the MV4-11 %inh in assay [4] worked out at 0.879%. Also, the CMK %inh in assay [5] was determined as 4.971%. The CMS %inh in assay [6] is on record as -0.4155%. For the same molecule, the MOLM-13 %inh in assay [7] is 0.9477%. In addition, the U937 %inh in assay [8] is 4.388%.

With `C[C@@H]1CN(c2c(F)c(N)c3c(=O)c(C(=O)O)cn(C4CC4)c3c2F)C[C@H](C)N1` [SJ000556731-2, SPARFLOXACIN], the M07e %inh in assay [1] (M07e %inh, 10 µM) is given as -2.464%. The ML-2 %inh in assay [2] (ML-2 %inh, 10 µM) is 2.462%. Besides, the CHRF288-11 %inh in assay [3] (CHRF288-11 %inh, 10 µM) amounted to 0.9037%. In addition, the MV4-11 %inh in assay [4] (MV4-11 %inh, 10 µM) stood at 1.115%. Also, in assay [5] (CMK %inh, 10 µM), the CMK %inh came out at 6.161%. The CMS %inh in assay [6] (CMS %inh, 10 µM) is -0.1151%. Further, the MOLM-13 %inh in assay [7] (MOLM-13 %inh, 10 µM) amounted to 6.829%. Besides, the U937 %inh in assay [8] (U937 %inh, 10 µM) stood at 3.77%.

Regarding `Cc1c(C2=C(c3cn(C)c4ccccc34)C(=O)NC2=O)c2ccccc2n1C` [SJ000580966-1], the M07e %inh in assay [1] was 4.858%. Also, in assay [2], the ML-2 %inh was 15.84%. The CHRF288-11 %inh in assay [3] is given as 4.622%. For the same molecule, the MV4-11 %inh in assay [4] is -0.1129%. Also, the CMK %inh in assay [5] was 42.24%. The CMS %inh in assay [6] is -2.63%. In addition, the MOLM-13 %inh in assay [7] is 2.992%. Further, the U937 %inh in assay [8] turned out to be 14.47%.

Take `CC(=O)N[C@@H](Cc1ccc(OP(=O)(O)O)cc1)C(=O)N[C@H]1CCC(=O)N2CCC[C@@H](C(=O)NCc3cccc4ccccc34)N2C1=O` [SJ000581126-1]: the M07e %inh in assay [1] is 3.709%. The ML-2 %inh in assay [2] was -1.495%. In addition, the CHRF288-11 %inh in assay [3] amounted to 5.32%. Moreover, the MV4-11 %inh in assay [4] is recorded as 0.5498%. Further, the CMK %inh in assay [5] was determined as 0.6517%. The CMS %inh in assay [6] was 3.071%. Also, in assay [7], the MOLM-13 %inh turned out to be 1.087%. The U937 %inh in assay [8] is recorded as 1.351%.

In the case of `O=C(O[C@H]1CN[C@H](C#Cc2cc3ncnc(Nc4ccc(OCc5cccc(F)c5)c(Cl)c4)c3s2)C1)N1CCOCC1` [SJ000573329-1, U20348/87/4], the M07e %inh in assay [1] was -3.855%. Moreover, the ML-2 %inh in assay [2] is 22.51%. In addition, the CHRF288-11 %inh in assay [3] amounted to 79.21%. Further, the MV4-11 %inh in assay [4] worked out at 10.03%. Besides, in assay [5], the CMK %inh is 8.904%. The CMS %inh in assay [6] is 8.758%. Further, the MOLM-13 %inh in assay [7] amounted to 4.591%. The U937 %inh in assay [8] was found to be 6.089%.

Take `CO[C@H]1/C=C/O[C@@]2(C)Oc3c(C)c(O)c4c(O)c(c(/C=N/N5CCN(C)CC5)c(O)c4c3C2=O)NC(=O)/C(C)=C\C=C\[C@H](C)[C@H](O)[C@@H](C)[C@@H](O)[C@@H](C)[C@H](OC(C)=O)[C@@H]1C` [SJ000000850-7, RIFAMPIN | RIFAMPICIN]: in assay [1] (M07e %inh, 10 µM), the M07e %inh stood at 2.856%. Besides, the ML-2 %inh in assay [2] (ML-2 %inh, 10 µM) is recorded as 2.607%. The CHRF288-11 %inh in assay [3] (CHRF288-11 %inh, 10 µM) was 22.26%. Besides, in assay [4] (MV4-11 %inh, 10 µM), the MV4-11 %inh was 6.955%. Also, the CMK %inh in assay [5] (CMK %inh, 10 µM) is given as 0.4994%. For the same molecule, the CMS %inh in assay [6] (CMS %inh, 10 µM) turned out to be 16.96%. In addition, the MOLM-13 %inh in assay [7] (MOLM-13 %inh, 10 µM) is 4.02%. In addition, the U937 %inh in assay [8] (U937 %inh, 10 µM) turned out to be 2.422%.

For `Fc1cccc(COc2ccc(Nc3ncnc4sc(-c5cccs5)cc34)cc2Cl)c1` [SJ000573122-1, U22476/39/1], in assay [1], the M07e %inh was -0.3704%. Moreover, the ML-2 %inh in assay [2] is 0.7454%. The CHRF288-11 %inh in assay [3] is reported as -6.815%. Further, in assay [4], the MV4-11 %inh was -2.021%. Besides, the CMK %inh in assay [5] was determined as 1.871%. In assay [6], the CMS %inh is recorded as -1.772%. In addition, the MOLM-13 %inh in assay [7] is recorded as 3.265%. Further, in assay [8], the U937 %inh was found to be 3.407%.
